Assay results: publication PMC10853860 (2023)
One block for each compound: values may come before it.

Assays:
[1] = test system: T. ilyis ldcC SAM-I variant riboswitch WT (TiltrxWT) (RNA, riboswitch) AAAAUAUCUCUUAUUAAUAGCCGUUGAGACGAGGGGUCGAAGAUACGGUGGCAAACCAAUCAAUCCAAUUUUUUUGCAGUACGGAUUGAUAUUGGGUGCCCAACCUGAGCGUAGGAUUAUCCAAGUCCUAUGAGCAAUAAGAGGAAAAGCAGCUGAUAGAUAUCGAAGCUUUCCUUUGGUUGGAGAGCUUUUUUUAUGCCCAUUUUUUAUAUCAAAGGGGGAAAUCUAU; assay: single-round transcription termination; conditions: 100 mM KCl, 2 mM MgCl2, 20 mM Tris-HCl pH 8.0, 37 °C; for binding: 1 mM tested, no termination increase; for T50: E. coli RNA polymerase, apparent
[2] = test system: 135 metK RNA (RNA, riboswitch) GGUCUAUCUUAUUAAUAGCCGUUGAGACGAGGGGUCGAAGAAGCGGUGGCAAACCAGUCCAAAUCAAUGAUUUGGAUAUGGGGCCCAACCUGAGCGCAGAGCUUUUCUGUUCUGUGAACAAUAAGAGGAUAAGCAG; assay: in-line probing; conditions: 100 mM KCl, 2 mM MgCl2, 50 mM Tris-HCl pH 7.5, ~20 °C, apparent
[3] = test system: T. ilyis hypo consensus SAM-I riboswitch (TilconsSAMItrx) (RNA, riboswitch) AAAAUAACUUCUUUAUCACGAGAGAUUGAGGGACUGGCCCGAUGACAUCUCAGCAACCGACCCACGCGUAACGCGGCGGCACGGUGCUAAAUCCUGCAGAGUAAUCUGAGAGAUAAGAAGAGCAAAUCGACAUUCCCGACUCUUCUUGUUAUAAGAAGGGUUUUUUGUUUUCAAAAAAACAAUCUGGAGGGAAAAACG; assay: single-round transcription termination; conditions: 100 mM KCl, 2 mM MgCl2, 20 mM Tris-HCl pH 8.0, 37 °C
[4] = test system: T. ilyis ldcC M9 (TiltrxshortP1) (RNA, riboswitch) AAUUAAUAGCCGUUGAGACGAGGGGUCGAAGAUACGGUGGCAAACCAAUCAAUCCAAUUUUUUUGCAGUACGGAUUGAUAUUGGGUGCCCAACCUGAGCGUAGGAUUAUCCAAGUCCUAUGAGCAAUAAGAGGAAAAGCAGCUGAUAGAUAUCGAAGCUUUCCUUUGGUUGGAGAGCUUUUUUUAUGCCCAUUUUUUAUAUCAAAGGGGGAAAUCUAU; assay: single-round transcription termination; conditions: 100 mM KCl, 2 mM MgCl2; 20 mM Tris-HCl pH 8.0, 37 °C; no termination response
[5] = test system: 135 metK M14 (RNA, riboswitch) GGUCUAUCUUAUUAAAAGCCGUUGAGACGAGGGGUCGAAGAAGCGGUGGCAUACCAGUCCAAAUCAAUGAUUUGGAUAUGGGGCCAAACCUGAGCGCAGAGCUUUUCUGUUCUGUGAACAAUAAGAGGAUAAGCAG; assay: in-line probing; conditions: 100 mM KCl, 2 mM MgCl2; 50 mM Tris-HCl pH 7.5, ~20 °C; 1 and 5.6 mM tested
[6] = test system: (RNA, riboswitch) AAAAUAUCUCUUAUUAAUAGCCGUUGAGACGAGGGGUCGAAGAUACGGUGGCAAACCAAUCAAUCCAAUUUUUUUGCAGUACGGAUUGAUAUUGGGUGCCCAACCUGAGCGUAGGAUUAUCCAAGUCCUAUGAGCAAUAAGAGGAAAAGCAGCUGAUAGAUAUCGAAGCUUUCCUUUGGUUGGAGAGCUUUUUUUAUGCCCAUUUUUUAUAUCAAAGGGGGAAAUCUAU; assay: single-round transcription termination; conditions: 100 mM KCl, 2 mM MgCl2; 20 mM Tris-HCl pH 8.0, 37 °C; 1 mM tested; no termination increase

Compound: CC(=O)NCCCNCCCCN
- binding [1]: no

Compound: CNCCCN
- binding [1]: no

Compound: CSC[C@H]1O[C@@H](n2cnc3c(N)ncnc32)[C@H](O)[C@@H]1O
- binding [1]: no

Compound: NCCCCNCCCN
- binding [4]: no
- binding [5]: weak
- KD ([2]; Hill 1.4, replicate ~730 μM): ~ 670 μM
- binding ([3]; 1 mM tested, no termination response): no
- T50 [1]: 214 µM

Compound: NCCCN
- binding [1]: no

Other lines, results leading:

- KD ([2]; Hill 1.5): ~ 860 μM
Compound: CC(=O)NCCCNCCCCNCCCN

- binding [1]: no
Compound: CCCNCCCN

- binding [1]: no
Compound: CCNCCCN

- binding ([3]; 1 mM SAM, strong termination): yes
- binding [1]: no
Compound: C[S+](CC[C@H](N)C(=O)O)C[C@H]1O[C@@H](n2cnc3c(N)ncnc32)[C@H](O)[C@@H]1O (some centres unmarked)

- KD ([2]; Hill 1.4): ~ 340 μM
- T50 [1]: 79 µM
Compound: NCCCNCCCCNCCCN

- binding [6]: no
Compound: NCCCSC[C@H]1O[C@@H](n2cnc3c(N)ncnc32)[C@H](O)[C@@H]1O
